# Results: patent publication US20250275938A1, “COMPOSITIONS AND METHODS FOR TREATMENT OF CANCER” (SCIROSBIO (FZC), priority 2022, published 2025)
# Tests used:
# [1] = tested on: U87MG human glioma cell line; assay: MTT cell viability assay, U87MG; type: cell-based; settings: for IC50: Homo sapiens, U-87 MG, individual drug, mean ± SD, no unit in table, test concentrations given in μM, read-out: Inhibitory Concentration at 50% (IC50) U87MG Cells; for IC50 / cell viability / anti-proliferative effect (MTT), in words: 24 hours; for cell viability / anti-proliferative effect (MTT), in words: U87MG
# Protocol: (§1) Cell lines and culture conditions. A human glioma cell line, U87MG, a rat glioma cell line, C6, and normal HEK293T (Human Embryonic Kidney) cells were obtained from National Centre for Cell Science (NCCS), Pune, India. The cells were sub-cultured in Dulbecco's Modified Eagle's Medium (DMEM) supplemented with 10% FBS at 5% CO2 and 37° C. At 85% confluence, the cells were harvested using 0.25% trypsin and seeded in 25 cm^2 flasks, 96 well, and 6-well plates, according to the experiment being performed. The cells were allowed to attach 70% to the surface prior to treatment. A stock solution of all the drugs (10 mg/ml) was made in a vehicle and diluted to the required concentrations. Suspensions were aspirated 10 times before treatment. Cells treated with vehicle control were used as a control.
# (§2) Cell viability assay. U87MG and C6 cells (5×10^3 cells/ml) were seeded in 96-well plates and exposed to different individual-drug treated groups with varying concentrations (0, 10, 40, 80, 120, and 160 μM) for a period of 24 hours, whereas HEK293T cells (5×10^3 cells/ml) were seeded at the inhibitory concentration (IC) at 50% of drugs, either alone or in combination. The individual-treated groups include Group I: untreated control glioma cells; Group II: TMZ-treated glioma cells; Group III: MET-treated glioma cells; and Group IV: EGCG-treated glioma cells.
# (§3) After a 24 hour treatment period, the cells were allowed to react with MTT for 4 hours in dark at 37° C. At the end of the incubation period, the dark purple formazan crystals formed were solubilized with DMSO and the absorbance was measured spectrophotometrically at 595 nm (Molecular Devices Spectra-Max M5, USA). The experiments were repeated at least three times. To determine the cell viability, the percentage of viability was calculated as follows:
# (§4) % viability=[(Optical density {OD} of treated cells−OD of Blank)/(OD of control−OD of blank)]×100.
# (§5) Calculation of IC50 value. The IC50 of a drug was determined using y=m(x)+c equation (where: ‘y’ & ‘x’ are the respective coordinates of y & x-axis, ‘m’ is the slope and ‘c’ is the constant) derived from the trendlines of each scattered plots MMT assay. […] The IC50 and IC25 were also calculated for the dual combinations. The IC50 for the triple combination was calculated by keeping the IC25 of the dual-combination constant, and the third drug was used in varying concentrations (0, 10, 40, 80, 120, and 160 μM) (Table 1).
# (§6) Combination index of drugs. According to the Chou-Talalay method, The statistical Combination Index (CI) of the drugs was performed according to the Chou-Talay method (Ma et al, Stem Cell Reports, 2017 9(6):1948-1960) to determine whether various drug combinations were synergistic, additive, or antagonistic, as shown in Table 1. This was performed for Groups V-IX using the following formula:
# (§7) Combination index (CI) of Drugs 1 & 2=(IC50 of drug-1 in combination/IC50 of drug-1 individually)+(IC50 of drug-2 in combination/IC50 of drug-2 individually).
# C6 rat glioma cell line = assay: MTT cell viability assay, C6; type: cell-based; settings: for cell viability / anti-proliferative effect (MTT), in words / IC50: C6, 24 hours; for IC50: Rattus norvegicus, individual drug, mean ± SD, no unit in table, test concentrations given in μM, read-out: Inhibitory Concentration at 50% (IC50) C6 Cells
# Protocol: as §1, §2, §3, §4, §5, §6, §7
# U87MG human glioma cells = assay: AO/EtBr dual staining for apoptosis, U87MG; type: cell-based; settings: respective IC50 concentrations
# Description: AO/EtBr are fluorescent nuclear stains, which distinguish between live and dead cells based on their membrane integrity. AO intercalates in the DNA of live cells imparting green shade to the nucleus as an indica-tor of viability. In the case of the dead cell, EtBr intercalates along with AO, resulting in an orange appearance, with an increased orange appearance corresponding to a concomitant increase in the number of dead cells and vice versa.
# After the treatment period, monolayer cells were stained with AO/EtBr stain (1 mg/ml) and were visualized immediately under a fluorescence microscope (Axiovert, Carl Zeiss) at 20× magnification.
# [2] = tested on: intracellular ROS in U87MG cells; assay: ROS activity by DCF-DA, U87MG; type: cell-based, human; settings: IC50 concentrations, vs control
# Protocol: Determination of ROS activity by DCF-DA. U87MG and C6 cells were seeded at 5×10^3 cells/well in 96 well plates. […] After the treatment period, monolayer cells were stained with DCF-DA stain, and the absorbance was read at 530 nm spectrophotometrically (Molecular Devices Spectra-Max M5, USA). This method is commonly used in ROS investigations and is based on the application of H2DCFDA (acetylated form of DCF), which is consecutively deacetylated inside the cells by intracellular esterase.
# [3] = tested on: human pancreatic cancer (PANC1) cells; assay: MTT cell viability assay, PANC1; type: cell-based; settings: 24 hours
# Protocol: Cell lines and culture conditions: A human pancreatic cancer cell line PANC1 and human colon cancer cell line HCT116 were obtained from National Centre for Cell Science (NCCS), Pune, India. The PANC1 cells were sub-cultured in Dulbecco's Modified Eagle's Medium (DMEM) supplemented with 10% FBS at 5% C02 and 37° C. The HCT116 cells were sub-cultured in McCoy's 5A media supplemented with 10% FBS at 5% CO2 and 37° C. […] The cells were allowed to attach 70% to the surface prior to treatment. […] Suspensions were aspirated 10 times before treatment. Cells treated with vehicle control were used as a control. Cell viability assay: PANC1 and HCT116 cells ([…] cells/ml) were seeded in 96-well plates and exposed to different individual-drug treated groups with varying concentrations (0, 20, 40, 60, 80, 100, 120, 140, 160, 180 and 200 μM) for a period of 24 hours. The individual-treated groups include Group I: 5 Fluorouracil (5FU)-treated PANC1 and HCT116 cells; Group II: MET-treated PANC1 and HCT116 cells; Group III: EGCG-treated PANC1 and HCT116 cells and Group IV: 5FU+[…] PANC1 and HCT116 cells.
# [4] = as used in the triple combination for CI
SMILES,IC50 [1],"cell viability / anti-proliferative effect (MTT), in words [1]","cell viability / anti-proliferative effect (MTT), in words ([1]; listed as ECGC)","cell viability / anti-proliferative effect (MTT), in words (C6 rat glioma cell line)","cell viability / anti-proliferative effect (MTT), in words (C6 rat glioma cell line; listed as ECGC)",IC50 (C6 rat glioma cell line),apoptotic cell death (AO/EtBr) (U87MG human glioma cells),apoptotic cell death (AO/EtBr) (U87MG human glioma cells; listed as E),intracellular ROS levels (DCF-DA fluorescence intensity) [2],"cell viability (MTT), in words [3]","IC25 U87MG [1, 4]",IC25 C6 (C6 rat glioma cell line; [4]),apoptotic cell death (AO/EtBr) (U87MG human glioma cells; hydrochloride),"apoptotic cell death (AO/EtBr) (U87MG human glioma cells; listed as M, hydrochloride)"
"O=C(O[C@@H]1Cc2c(O)cc(O)cc2O[C@@H]1c1cc(O)c(O)c(O)c1)c1cc(O)c(O)c(O)c1 [EGCG, [(2R,3R)-5,7-dihydroxy-2-(3,4,5-trihydroxyphenyl)-3,4-dihydro-2H-chromen-3-yl] 3,4,5-trihydroxybenzoate]",94 ± 1.39 µM,reduction in cell viability in a dose-dependent fashion,did not result in significant inhibitory effects,reduction in cell viability in a dose-dependent fashion,did not result in significant inhibitory effects,96 ± 1.76 µM,did not produce any significant apoptotic activity,no apoptosis,increased significantly,reduction in cell viability in a dose-dependent fashion,,,,
"CN(C)C(=N)N=C(N)N.Cl [MET, 3-(diaminomethylidene)-1,1-dimethylguanidine; hydrochloride]",80 ± 1.19 µM,reduction in cell viability in a dose-dependent fashion,,reduction in cell viability in a dose-dependent fashion,,77 ± 1.42 µM,,,did not show much effect on ROS levels,reduction in cell viability in a dose-dependent fashion,34.03 µM,38.40 µM,did not produce any significant apoptotic activity,no apoptosis but loss of cell membrane integrity
